# Test results published in patent publication US7148405B2, “Enzymes responsible for the metabolism of cis-zeatin” (State of Oregon Acting by and through the State Board of …, priority 2000, dated 2006).
# Target: T1, cis-zeatin O-glucosyltransferase (cis-ZOG1) (Zea mays, UniProt Q93XP7)
# T1 construct: His7 (seven histidine residues, from the vector); made in house; host or cells: E. coli XL1 Blue
# T1 sequence (Q93XP7 1-467): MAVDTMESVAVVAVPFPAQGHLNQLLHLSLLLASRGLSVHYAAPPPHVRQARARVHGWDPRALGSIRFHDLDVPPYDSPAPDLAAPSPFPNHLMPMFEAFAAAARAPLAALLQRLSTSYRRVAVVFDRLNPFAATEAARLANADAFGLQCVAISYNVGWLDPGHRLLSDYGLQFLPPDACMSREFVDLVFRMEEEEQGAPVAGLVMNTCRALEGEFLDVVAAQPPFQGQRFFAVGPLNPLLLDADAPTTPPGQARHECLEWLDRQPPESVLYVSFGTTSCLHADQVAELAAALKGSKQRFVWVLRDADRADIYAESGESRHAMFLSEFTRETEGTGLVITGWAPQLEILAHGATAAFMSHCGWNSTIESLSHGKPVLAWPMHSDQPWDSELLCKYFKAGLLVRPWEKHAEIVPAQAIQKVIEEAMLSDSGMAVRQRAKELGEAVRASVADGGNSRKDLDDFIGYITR
# Assay: Enzyme assay of recombinant cis-ZOG1 with cytokinin substrates and UDPG, products analysed by HPLC
# Assay type: biochemical
# Details: recombinant protein, UDPG as glycosyl donor, HPLC analysis
# Experimental: (§1) For FIG. 2B, 200 μL of supernatant obtained from cell culture was incubated with approximately 1 nmol of labeled zeatin and UDPG for 2 hours. For FIG. 2C, Approximately 0.4 nmole of reaction product obtained from reactions similar to FIG. 2B was incubated with β-glucosidase for 4 hours to reconvert the product to zeatin.
# 3. Isolation of Recombinant Proteins. To obtain recombinant proteins, the ORF of the selected cDNA was amplified by PCR using primers (SEQ ID NOS: 9 and 10) that generated products having an NcoI site at the 5′ and a XbaI site at the 3′ terminus. The PCR products were digested with NcoI and XbaI restriction enzymes and ligated into a p Trc 99A expression vector (Pharmacia) modified to contain seven histidine residues (CAT or CAC), and transformed into the XL1 Blue cell line. Colonies were selected on AMP-LB plates. […] After 4 hours cells were collected and frozen at −80 C overnight. Cells were resuspended in 0.5 mL of 0.2 M Tris pH 7.5 containing 1 mg/mL of lysozyme. Samples were incubated on ice for 30 minutes, frozen for 10 minutes at −80 C, thawed in cold water, and then DNAase (1 μg/10 μl supernatant) was added. After 10 minutes at room temperature, the samples were sonicated with four 15-second bursts to release proteins from cells. Soluble proteins were collected after centrifugation and used for enzyme assays.
# 4. Enzyme assays and analysis of reaction products. Enzyme activity was determined as reported previously (Dixon et al., Plant Physiol. 90:1316–1321, 1989). Briefly, a specified amount of recombinant protein, ^14C-labeled cis-zeatin (specific activity of 24 mCi/mmol), and a glycosyl donor (4 mM of UDPG) were incubated in MgCl2 (0.07 M) in 0.17 M Tris, pH 8.0. Reaction products were then analyzed by HPLC (Dixon et al., Plant Physiol. 90:1316–1321, 1989).
row,use as substrate by the recombinant enzyme (O-glucosylation),Compound
1,does not use,C/C(=C\CNc1ncnc2c1ncn2[C@@H]1O[C@H](CO)[C@@H](O)[C@H]1O)CO (relative stereo) [trans-ribosylzeatin]
2,does not use,C/C(=C\CNc1ncnc2[nH]cnc12)CO [trans-zeatin]
3,does not use,CC(CO)CCNc1ncnc2nc[nH]c12 (stereo not drawn) [dihydrozeatin]
4,does not use,CC(CO)CCNc1ncnc2c1ncn2[C@@H]1O[C@H](CO)[C@@H](O)[C@H]1O (stereo partly drawn) [ribosyldihydrozeatin]

row,Compound,use as substrate by the recombinant enzyme (O-glucosylation)
1,C/C(=C/CNc1ncnc2nc[nH]c12)CO [cis-zeatin],formation of O-glucosyl-cis-zeatin from cis-zeatin

# Tested on: β-glucosidase
# Assay: not given
# Details: reaction product incubated with β-glucosidase for 4 hours
# Experimental: as §1
row,Compound,re-conversion to cis-zeatin by β-glucosidase
1,cis-zeatin O-glucoside,re-conversion of the reaction product to cis-zeatin by β-glucosidase
